Measured values reported in patent publication US9675614B2, “PRMT5 inhibitors and uses thereof” (Epizyme, Inc., priority 2012, dated 2017).

molecular target: PRMT5/MEP50 (Homo sapiens (Human), UniProt O14744); assay: PRMT5 Biochemical Assay (PRMT5/MEP50 enzyme assay on peptide substrate, 3H-SAM Flashplate); details: PRMT5/MEP50 biochemical assay; read-out: Biochemical IC50
Description: S-adenosylmethionine (SAM), S-adenosylhomocysteine (SAH), bicine, KCl, Tween20, dimethylsulfoxide (DMSO), bovine skin gelatin (BSG), and Tris(2-carboxyethyl)phosphine hydrochloride solution (TCEP) were purchased from Sigma-Aldrich at the highest level of purity possible. ^3H-SAM was purchase from American Radiolabeled Chemicals with a specific activity of 80 Ci/mmol. 384-well streptavidin Flashplates were purchased from PerkinElmer.
Peptide representative of human histone H4 residues 1-15 was synthesized with a C-terminal linker-affinity tag motif and a C-terminal amide cap by 21st Century Biochemicals. […] The sequence was Ac-[…][K-Biot]amide (SEQ ID NO.:3).
Full-length human MEP50 (NM_024102) clone was amplified from a human testis cDNA library incorporating a 5′ sequence encoding a 6-histidine tag (MHHHHHH) (SEQ ID NO.:5) fused directly to Arg 2 of MEP50. The amplified genes were subcloned into pENTR/D/TEV (Life Technologies) and subsequently transferred by Gateway™ attL×attR recombination to pDEST8 baculvirus expression vector (Life Technologies).
Recombinant baculovirus and Baculovirus-Infected Insect Cells (BIIC) were generated according to Bac-to-Bac kit instructions (Life Technologies) and Wasilko, 2006, respectively. Protein over-expression was accomplished by infecting exponentially growing Spodoptera frugiperda (SF9) cell culture at 1.2×10^6 cell/ml with a 5000 fold dilution of BIIC stock. Infections were carried out at 27° C. for 72 hours, harvested by centrifugation, and stored at −80° C. for purification.
Flag-PRMT5/6His-MeP50 was eluted with 300 mM Imidazole in the same buffer. […] Reference: Wasilko, D. J. and S. E. Lee: “TIPS: titerless infected-cells preservation and scale-up” Bioprocess J., 5 (2006), pp. 29-32.
General Procedure for PRMT5/MEP50 Enzyme Assays on Peptide Substrates.
The assays were all performed in a buffer consisting of 20 mM Bicine (pH=7.6), 1 mM TCEP, 0.005% BSG, and 0.002% Tween20, prepared on the day of use. Compounds in 100% DMSO (1 ul) were spotted into a polypropylene 384-well V-bottom plates (Greiner) using a Platemate Plus outfitted with a 384-channel head (Thermo Scientific). DMSO (1 ul) was added to Columns 11, 12, 23, 24, rows A-H for the maximum signal control and 1 ul of SAH, a known product and inhibitor of PRMT5/MEP50, was added to columns 11, 12, 23, 24, rows I-P for the minimum signal control. A cocktail (40 ul) containing the PRMT5/MEP50 enzyme and the peptide was added by Multidrop Combi (Thermo-Fisher). The compounds were allowed to incubate with PRMT5/MEP50 for 30 min at 25 degrees Celsius, then a cocktail (10 ul) containing ^3H-SAM was added to initiate the reaction (final volume=51 ul). The final concentrations of the components were as follows: PRMT5/MEP50 was 4 nM, ^3H-SAM was 75 nM, peptide was 40 nM, SAH in the minimum signal control wells was 100 uM, and the DMSO concentration was 1%. The assays were stopped by the addition of non-radioactive SAM (10 ul) to a final concentration of 600 uM, which dilutes the ^3H-SAM to a level where its incorporation into the peptide substrate is no longer detectable. 50 ul of the reaction in the 384-well polypropylene plate was then transferred to a 384-well Flashplate and the biotinylated peptides were allowed to bind to the streptavidin surface for at least 1 hour before being washed three times with 0.1% Tween20 in a Biotek ELx405 plate washer. The plates were then read in a PerkinElmer TopCount plate reader to measure the quantity of ^3H-labeled peptide bound to the Flashplate surface, measured as disintegrations per minute (dpm) or alternatively, referred to as counts per minute (cpm).
[formula] Where dpm=disintegrations per minute, cmpd=signal in assay well, and min and max are the respective minimum and maximum signal controls.
[formula] Where top and bottom are the normally allowed to float, but may be fixed at 100 or 0 respectively in a 3-parameter fit.

PRMT5/MEP50, sequence (O14744 other isoform, or with tags, fused parts or gaps): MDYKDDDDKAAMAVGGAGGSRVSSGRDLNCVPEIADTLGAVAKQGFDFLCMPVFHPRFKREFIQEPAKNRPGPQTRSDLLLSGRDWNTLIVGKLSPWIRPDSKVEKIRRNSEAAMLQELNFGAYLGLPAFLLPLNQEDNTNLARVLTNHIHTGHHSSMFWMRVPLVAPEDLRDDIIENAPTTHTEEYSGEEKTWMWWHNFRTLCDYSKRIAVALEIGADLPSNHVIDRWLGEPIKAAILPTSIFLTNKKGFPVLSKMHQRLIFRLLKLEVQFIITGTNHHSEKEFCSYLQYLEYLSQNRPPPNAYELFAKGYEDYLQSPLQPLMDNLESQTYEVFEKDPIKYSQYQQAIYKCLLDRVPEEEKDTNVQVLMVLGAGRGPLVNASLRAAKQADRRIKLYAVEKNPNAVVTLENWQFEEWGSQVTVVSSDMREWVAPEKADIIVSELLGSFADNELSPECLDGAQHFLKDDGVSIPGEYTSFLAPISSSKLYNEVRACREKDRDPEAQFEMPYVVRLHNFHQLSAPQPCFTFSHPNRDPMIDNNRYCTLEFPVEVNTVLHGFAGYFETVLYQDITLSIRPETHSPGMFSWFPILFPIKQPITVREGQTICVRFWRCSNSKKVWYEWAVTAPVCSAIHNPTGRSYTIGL
PRMT5/MEP50, sequence (Q9BQA1 other isoform, or with tags, fused parts or gaps partner): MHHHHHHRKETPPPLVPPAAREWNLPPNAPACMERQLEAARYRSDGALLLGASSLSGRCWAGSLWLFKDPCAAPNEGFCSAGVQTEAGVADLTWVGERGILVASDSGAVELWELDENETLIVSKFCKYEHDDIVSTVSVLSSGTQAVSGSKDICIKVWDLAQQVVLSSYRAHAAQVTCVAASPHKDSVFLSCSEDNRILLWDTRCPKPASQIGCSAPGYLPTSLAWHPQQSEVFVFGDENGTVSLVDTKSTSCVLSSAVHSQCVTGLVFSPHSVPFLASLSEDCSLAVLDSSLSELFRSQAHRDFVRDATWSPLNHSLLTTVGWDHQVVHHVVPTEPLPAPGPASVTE

SMILES | IC50
CC(=O)N1CCC(Nc2ccc(C(=O)NCC(O)CN3CCc4ccccc4C3)cc2)CC1 (centres unmarked) [Compound 127] | < 0.1 µM
O=C(NCC(O)CN1CCc2ccccc2C1)c1ccc(NC2CCN(CC(F)(F)F)CC2)cc1 (centres unmarked) [Compound 128] | < 0.1 µM
O=C(NCC(O)CN1CCc2ccccc2C1)c1ccc(NC2CCOC2)cc1 (centres unmarked) [Compound 129] | < 0.1 µM
O=C(NCC(O)CN1CCc2ccccc2C1)c1cccc(-n2cncn2)c1 (centres unmarked) [Compound 130] | < 0.1 µM
CN1CCC(N(C)c2cccc(C(=O)NCC(O)CN3CCc4ccccc4C3)c2)CC1 (centres unmarked) [Compound 131] | < 0.1 µM
CN1CCC(N(C)c2cccc(C(=O)NCC(O)CN3CCc4ccccc4C3)c2)C1 (centres unmarked) [Compound 132] | < 0.1 µM
O=C(NCC(O)CN1CCc2ccccc2C1)c1cccc(OCCN2CCOCC2)c1 (centres unmarked) [Compound 133] | < 0.1 µM
CC(C)N1CCC(Oc2cccc(C(=O)NCC(O)CN3CCc4ccccc4C3)c2)C1 (centres unmarked) [Compound 135] | < 0.1 µM
CC(=O)N1CCC(Oc2cccc(C(=O)NCC(O)CN3CCc4ccccc4C3)c2)C1 (centres unmarked) [Compound 136] | < 0.1 µM
O=C(NCC(O)CN1CCc2ccccc2C1)c1cccc(OC2CCN(CC(F)(F)F)C2)c1 (centres unmarked) [Compound 137] | < 0.1 µM
O=C(NCC(O)CN1CCc2ccccc2C1)c1ccc(NC2CCNCC2)cc1 (centres unmarked) [Compound 138] | < 0.1 µM
CN1CCC(Nc2ccc(C(=O)NCC(O)CN3CCc4ccccc4C3)cc2)CC1 (centres unmarked) [Compound 139] | < 0.1 µM
CC(C)N1CCC(Nc2ccc(C(=O)NCC(O)CN3CCc4ccccc4C3)cc2)CC1 (centres unmarked) [Compound 140] | < 0.1 µM
CS(=O)(=O)N1CCC(Nc2ccc(C(=O)NCC(O)CN3CCc4ccccc4C3)cc2)CC1 (centres unmarked) [Compound 141] | < 0.1 µM
O=C(NCC(O)CN1CCc2ccccc2C1)c1ccc(CN2CCNCC2)cc1 (centres unmarked) [Compound 143] | < 0.1 µM
CN(c1ccc(C(=O)NCC(O)CN2CCc3ccccc3C2)cc1)C1CCOC1 (centres unmarked) [Compound 144] | < 0.1 µM
O=C(NCC(O)CN1CCc2ccccc2C1)c1ccc(CN2CCOCC2)cc1 (centres unmarked) [Compound 145] | < 0.1 µM
COCCCOc1ccc(C(=O)NCC(O)CN2CCc3ccccc3C2)cc1 (centres unmarked) [Compound 146] | < 0.1 µM
NCCN1CCN(Cc2cccc(C(=O)NCC(O)CN3CCc4ccccc4C3)c2)CC1 (centres unmarked) [Compound 147] | < 0.1 µM
O=C(NCC(O)CN1CCc2ccccc2C1)c1ccn[nH]1 (centres unmarked) [Compound 148] | 0.101 to 1 µM
Cn1ccc(C(=O)NCC(O)CN2CCc3ccccc3C2)n1 (centres unmarked) [Compound 149] | 0.101 to 1 µM

SMILES | IC50
Cn1nccc1C(=O)NCC(O)CN1CCc2ccccc2C1 (centres unmarked) [Compound 150] | 0.101 to 1 µM
O=C(NCC(O)CN1CCc2ccccc2C1)c1cccc(CO)c1 (centres unmarked) [Compound 151] | 0.101 to 1 µM
CC1CC(Nc2cccc(C(=O)NC[C@@H](O)CN3CCc4ccccc4C3)c2)CC(C)O1 (some centres unmarked) [Compound 153] | < 0.1 µM
O=C(NCC(O)CN1CCc2ccccc2C1)c1cccc(C2CCOC2)c1 (centres unmarked) [Compound 154] | < 0.1 µM
COc1ccc2cc(C(=O)NCC(O)CN3CCc4ccccc4C3)ccc2n1 (centres unmarked) [Compound 155] | 0.101 to 1 µM
CC(=O)NCCN1CCN(Cc2cccc(C(=O)NCC(O)CN3CCc4ccccc4C3)c2)CC1 (centres unmarked) [Compound 156] | < 0.1 µM
O=C(O)CN1CCN(Cc2cccc(C(=O)NCC(O)CN3CCc4ccccc4C3)c2)CC1 (centres unmarked) [Compound 157] | 0.101 to 1 µM
O=C(O)CCCN1CCN(Cc2cccc(C(=O)NCC(O)CN3CCc4ccccc4C3)c2)CC1 (centres unmarked) [Compound 158] | < 0.1 µM
NC(=O)CCCN1CCN(Cc2cccc(C(=O)NCC(O)CN3CCc4ccccc4C3)c2)CC1 (centres unmarked) [Compound 159] | < 0.1 µM
COc1cc(CN2CCN(C)CC2)cc(C(=O)NCC(O)CN2CCc3ccccc3C2)c1 (centres unmarked) [Compound 160] | < 0.1 µM
CC(c1cccc(C(=O)NCC(O)CN2CCc3ccccc3C2)c1)N1CCN(C)CC1 (centres unmarked) [Compound 161] | < 0.1 µM
CS(=O)(=O)N1CCC(Oc2cccc(C(=O)NCC(O)CN3CCc4ccccc4C3)c2)C1 (centres unmarked) [Compound 162] | < 0.1 µM
CN1CCN(Cc2ccc(C(=O)NCC(O)CN3CCc4ccccc4C3)cc2)CC1 (centres unmarked) [Compound 163] | < 0.1 µM
O=C(NCC(O)CN1CCc2ccccc2C1)c1cccc(N2CCS(=O)(=O)CC2)c1 (centres unmarked) [Compound 164] | < 0.1 µM
CCOC(=O)CN1CCN(Cc2cccc(C(=O)NCC(O)CN3CCc4ccccc4C3)c2)CC1 (centres unmarked) [Compound 165] | < 0.1 µM
C[C@H]1CC(Nc2cccc(C(=O)NC[C@H](O)CN3CCc4ccccc4C3)c2)CCO1 (some centres unmarked) [Compound 167] | < 0.1 µM
C[C@@H]1CC(Nc2cccc(C(=O)NC[C@H](O)CN3CCc4ccccc4C3)c2)CCO1 (some centres unmarked) [Compound 168] | < 0.1 µM
O=C(NCC(O)CN1CCc2ccccc2C1)c1cc(NC2CCOCC2)n[nH]1 (centres unmarked) [Compound 169] | < 0.1 µM
O=C(NCC(O)CN1CCc2ccccc2C1)c1ncc[nH]1 (centres unmarked) [Compound 170] | 0.101 to 1 µM
Cn1ccnc1C(=O)NCC(O)CN1CCc2ccccc2C1 (centres unmarked) [Compound 171] | < 0.1 µM
NC(=O)CN1CCN(Cc2cccc(C(=O)NCC(O)CN3CCc4ccccc4C3)c2)CC1 (centres unmarked) [Compound 172] | < 0.1 µM

SMILES | IC50
CNC(=O)CN1CCN(Cc2cccc(C(=O)NCC(O)CN3CCc4ccccc4C3)c2)CC1 (centres unmarked) [Compound 173] | < 0.1 µM
CN(C)C(=O)CN1CCN(Cc2cccc(C(=O)NCC(O)CN3CCc4ccccc4C3)c2)CC1 (centres unmarked) [Compound 174] | < 0.1 µM
CNC(=O)CCCN1CCN(Cc2cccc(C(=O)NCC(O)CN3CCc4ccccc4C3)c2)CC1 (centres unmarked) [Compound 175] | < 0.1 µM
O=C(NCC(O)CN1CCc2ccccc2C1)c1ccc(OC2CCNC2)cc1 (centres unmarked) [Compound 176] | < 0.1 µM
CN1CCC(Oc2ccc(C(=O)NCC(O)CN3CCc4ccccc4C3)cc2)C1 (centres unmarked) [Compound 177] | < 0.1 µM
CN(C)CCCOc1ccc(C(=O)NCC(O)CN2CCc3ccccc3C2)cc1 (centres unmarked) [Compound 178] | < 0.1 µM
O=C(NCC(O)CN1CCc2ccccc2C1)c1ccc(N2CCS(=O)(=O)CC2)cc1 (centres unmarked) [Compound 179] | < 0.1 µM
O=C(NC[C@H](O)CN1CCc2ccccc2C1)c1cc(NC2CCNCC2)ncn1 [Compound 180] | < 0.1 µM
CN1CCC(Nc2cc(C(=O)NC[C@H](O)CN3CCc4ccccc4C3)ncn2)C1 (some centres unmarked) [Compound 181] | < 0.1 µM
O=C(NC[C@H](O)CN1CCc2ccccc2C1)c1cc(NC2CCN(CC(F)(F)F)C2)ncn1 (some centres unmarked) [Compound 182] | < 0.1 µM
O=C(NC[C@H](O)CN1CCc2ccccc2C1)c1cncc(OC2CCOCC2)c1 [Compound 183] | < 0.1 µM
O=C(NC[C@@H](O)CN1CCc2ccccc2C1)c1ccnc(NC2CCOCC2)c1 [Compound 184] | < 0.1 µM
O=C(NC[C@@H](O)CN1CCc2ccccc2C1)c1cc(NC2CCOCC2)ncn1 [Compound 185] | < 0.1 µM
CN(C)CCN(C)c1cc(C(=O)NC[C@H](O)CN2CCc3ccccc3C2)ccn1 [Compound 186] | < 0.1 µM
O=C(NC[C@H](O)CN1CCc2ccccc2C1)c1ccnc(NCC2CC2)c1 [Compound 187] | < 0.1 µM
O=C(NC[C@H](O)CN1CCc2ccccc2C1)c1ccnc(NCc2ccncc2)c1 [Compound 189] | < 0.1 µM
O=C(NC[C@H](O)CN1CCc2ccccc2C1)c1ccnc(NCc2cccnc2)c1 [Compound 190] | < 0.1 µM
O=C(NC[C@H](O)CN1CCc2ccccc2C1)c1ccnc(NCc2ccccn2)c1 [Compound 191] | < 0.1 µM
O=C(NC[C@H](O)CN1CCc2ccccc2C1)c1ccnc(NC2CCOCC2)c1 [Compound 192] | < 0.1 µM
O=C(NC[C@H](O)CN1CCc2ccccc2C1)c1cc(NC2CCOCC2)ncn1 [Compound 193] | < 0.1 µM
